Columns and labels:
[1] = biological target: Urokinase-type plasminogen activator (Homo sapiens, UniProt P00749)
Serine protease 1 = Serine protease 1 (Homo sapiens, UniProt P07477); test: Inhibitory activity against Trypsin
Prothrombin = Prothrombin (Homo sapiens, UniProt P00734); test: Inhibitory activity against Thrombin (no observable inhibition at this screening concentration)
[2] = biological target: Tissue-type plasminogen activator (Homo sapiens, UniProt P00750); test: Inhibitory activity against tissue plasminogen activator
Sequence of Tissue-type plasminogen activator (P00750 whole entry): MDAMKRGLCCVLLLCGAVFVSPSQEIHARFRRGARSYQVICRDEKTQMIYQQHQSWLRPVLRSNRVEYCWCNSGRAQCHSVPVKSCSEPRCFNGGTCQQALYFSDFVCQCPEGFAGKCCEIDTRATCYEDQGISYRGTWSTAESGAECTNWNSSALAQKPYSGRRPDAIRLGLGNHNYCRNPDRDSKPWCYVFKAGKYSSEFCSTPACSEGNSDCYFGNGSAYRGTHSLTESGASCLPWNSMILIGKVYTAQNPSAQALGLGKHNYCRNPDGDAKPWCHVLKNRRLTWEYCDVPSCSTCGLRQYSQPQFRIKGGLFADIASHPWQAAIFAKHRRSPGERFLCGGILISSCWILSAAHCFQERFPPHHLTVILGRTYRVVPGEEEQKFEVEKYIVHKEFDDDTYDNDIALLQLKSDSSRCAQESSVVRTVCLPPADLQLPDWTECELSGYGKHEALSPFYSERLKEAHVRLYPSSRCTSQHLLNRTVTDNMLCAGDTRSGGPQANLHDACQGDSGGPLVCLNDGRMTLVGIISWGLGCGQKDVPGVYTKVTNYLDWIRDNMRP

Plasminogen = Plasminogen (Homo sapiens, UniProt P00747); test: Inhibitory activity against plasmin
Sequence of Plasminogen (P00747 97-580 limits assumed): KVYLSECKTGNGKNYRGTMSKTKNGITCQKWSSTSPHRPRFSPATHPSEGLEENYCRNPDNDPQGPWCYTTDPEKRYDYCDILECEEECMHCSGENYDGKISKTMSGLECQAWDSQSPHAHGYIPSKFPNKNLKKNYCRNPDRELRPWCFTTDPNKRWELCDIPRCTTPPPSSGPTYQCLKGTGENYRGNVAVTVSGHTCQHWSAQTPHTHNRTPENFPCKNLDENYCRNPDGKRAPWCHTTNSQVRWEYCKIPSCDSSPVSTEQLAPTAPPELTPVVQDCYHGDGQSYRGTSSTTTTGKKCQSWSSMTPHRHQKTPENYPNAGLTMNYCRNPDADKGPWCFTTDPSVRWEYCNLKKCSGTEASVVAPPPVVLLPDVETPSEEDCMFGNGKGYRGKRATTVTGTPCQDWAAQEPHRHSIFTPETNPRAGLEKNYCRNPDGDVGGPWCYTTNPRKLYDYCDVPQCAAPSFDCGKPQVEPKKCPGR
Sequence of Plasminogen (P00747 581-810 limits assumed): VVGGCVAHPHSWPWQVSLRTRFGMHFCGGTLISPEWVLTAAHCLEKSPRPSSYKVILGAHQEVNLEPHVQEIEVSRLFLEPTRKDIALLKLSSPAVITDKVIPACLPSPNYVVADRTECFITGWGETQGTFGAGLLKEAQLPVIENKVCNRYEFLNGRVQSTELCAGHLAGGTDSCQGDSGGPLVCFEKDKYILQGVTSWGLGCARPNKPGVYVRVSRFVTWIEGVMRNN

Sequence of Serine protease 1 (P07477 whole entry): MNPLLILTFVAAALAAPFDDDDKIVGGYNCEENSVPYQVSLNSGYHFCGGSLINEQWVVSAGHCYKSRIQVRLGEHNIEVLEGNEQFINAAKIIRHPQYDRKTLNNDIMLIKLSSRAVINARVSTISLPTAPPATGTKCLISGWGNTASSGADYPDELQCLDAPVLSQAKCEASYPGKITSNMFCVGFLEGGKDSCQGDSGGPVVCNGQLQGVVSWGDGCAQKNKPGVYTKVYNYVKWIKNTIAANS

SMILES	Ki [1] [µM]	further results
CSc1sc(C(=N)N)cc1-c1nc(-c2ccc(S(=O)(=O)Nc3ccc(C)cc3)cc2)cs1	272	–
COC(=O)COc1cccc(-c2csc(-c3cc(C(=N)N)sc3SC)n2)c1	44	–
CSc1ccc(C(=N)N)s1	6	–
CSc1sc(C(=N)N)cc1-c1cccc(-c2ccccc2)c1	> 34	–
CSc1sc(C(=N)N)cc1-c1cccc(-c2ccccc2)n1	> 28	–
CSc1sc(C(=N)N)cc1-c1nc(-c2ccccc2)c(C)s1	305	–
CSc1sc(C(=N)N)cc1-c1nc(-c2ccc([N+](=O)[O-])cc2)cs1	270	–
CSc1sc(C(=N)N)cc1-c1nc(-c2ccc(Cl)c([N+](=O)[O-])c2)cs1	161	–
CSc1sc(C(=N)N)cc1-c1nc(-c2ccc3ccccc3c2)cs1	138	–
CSc1sc(C(=N)N)cc1-c1nc(COc2ccccc2)cs1	178	–
COc1ccc(-c2csc(-c3cc(C(=N)N)sc3SC)n2)c(OC)c1	152	–
CSc1sc(C(=N)N)cc1-c1nc(-c2csc3ccccc23)cs1	141	–
CSc1sc(C(=N)N)cc1-c1ccccc1	0.6	–
CSc1sc(C(=N)N)cc1-c1nc(-c2cccc(NC(=O)c3ccc(F)cc3)c2)cs1	47	–
CSc1sc(C(=N)N)cc1-c1nc(-c2ccccc2)c(-c2ccccc2)s1	982	–
CSc1sc(C(=N)N)cc1-c1nc(-c2ccc(NS(C)(=O)=O)cc2)cs1	94	–
CSc1sc(C(=N)N)cc1-c1nc(-c2ccc(-c3ccccc3)cc2)cs1	1740	–

More lines, main results first:

Ki [1] [µM]	SMILES	further results
287	CSc1sc(C(=N)N)cc1-c1nc(-c2ccc(Cl)cc2Cl)cs1	–
546	CSc1sc(C(=N)N)cc1-c1nc(-c2cccc(C)c2)cs1	–
94	CSc1sc(C(=N)N)cc1-c1nc(-c2ccc(C)cc2)cs1	–
120	CSc1sc(C(=N)N)cc1-c1nc(-c2ccnc(Cl)c2)cs1	–
277	CSc1sc(C(=N)N)cc1-c1nc(-c2ccccc2C)cs1	–
91	CSc1sc(C(=N)N)cc1-c1nc(-c2ccc3c(c2)OCO3)cs1	Ki (Serine protease 1): 0.88 µM; Ki (Prothrombin): > 29 µM; Ki [2]: 1.7 µM; Ki (Plasminogen): 10.8 µM
641	CSc1sc(C(=N)N)cc1-c1nc(C2CCCCC2)cs1	–
86	CSc1sc(C(=N)N)cc1-c1nc(-c2cccc(O)c2)cs1	Ki (Serine protease 1): 0.93 µM; Ki (Prothrombin): > 25 µM; Ki [2]: 1.7 µM; Ki (Plasminogen): 32.1 µM
99	CSc1sc(C(=N)N)cc1-c1nc(-c2ccc(Cl)cc2)cs1	–
130	COc1ccccc1-c1csc(-c2cc(C(=N)N)sc2SC)n1	–
327	COc1ccc(-c2csc(-c3cc(C(=N)N)sc3SC)n2)cc1	–
145	CSc1sc(C(=N)N)cc1-c1nc(-c2ccc3c(c2)CCCC3)cs1	–
100	CSc1sc(C(=N)N)cc1-c1nc(-c2ccc3c(c2)OCCCO3)cs1	–
442	CSc1sc(C(=N)N)cc1-c1nc(-c2cccc(Br)c2)cs1	–
44	CSc1sc(C(=N)N)cc1-c1nc(-c2ccc(O)c(C)c2)cs1	–
815	CSc1sc(C(=N)N)cc1-c1nc(C)cs1	–
154	CSc1sc(C(=N)N)cc1-c1nc(-c2cccnc2Cl)cs1	–
108	CSc1sc(C(=N)N)cc1-c1nc(-c2ccc3c(c2)OCCO3)cs1	–
164	CSc1sc(C(=N)N)cc1-c1nc(-c2cnccc2Cl)cs1	–
115	COc1cccc(-c2csc(-c3cc(C(=N)N)sc3SC)n2)c1	Ki (Serine protease 1): 0.86 µM; Ki (Prothrombin): > 30 µM; Ki [2]: 1.9 µM; Ki (Plasminogen): 6.9 µM

Reference: ChEMBL document CHEMBL1134078, “Structure-based design, synthesis and SAR of a novel series of thiopheneamidine urokinase plasminogen activator inhibitors” (Bioorg Med Chem Lett, 2001)
